Assay type in all cases: cell-based
Assay [1] concerns Staphylococcus aureus MRQS. As to the kind of experiment: agar-dilution MIC, S. aureus MRQS. Particulars: methicillin resistant quinolone sensitive, 10^4 CFU/spot, 37° C., 24 hours. As for the experimental part: (§1) The following results were obtained on a standard in vitro test system. The activity is described in terms of the minimum inhibitory concentration (MIC) determined by the agar-dilution technique with an inoculum size of 10^4 CFU/spot.
(§2) Staphylococci were tested on agar, using an inoculum of 10^4 CFU/spot and an incubation temperature of 37° C. for 24 hours--standard test conditions for the expression of methicillin resistance.
MRQS = methicillin resistant quinolone sensitive

Assay [2] relates to Staphylococcus aureus Oxford. As to the kind of experiment: agar-dilution MIC, S. aureus Oxford. Particulars: 10^4 CFU/spot, 37° C., 24 hours. As for the experimental part:
as §1, §2

The subject of assay [3] is Streptococcus pyogenes C203. As to the kind of experiment: agar-dilution MIC, S. pyogenes C203. Particulars: agar with 5% defibrinated horse blood, 10^4 CFU/spot, 37° C., 5% carbon dioxide, 48 hours. As for the experimental part: as §1
(§3) Streptococci and enterococci were tested on agar supplemented with 5% defibrinated horse blood, an inoculum of 10^4 CFU/spot and an incubation temperature of 37° C. in an atmosphere of 5% carbon dioxide for 48 hours--blood is required for the growth of some of the test organisms.

Assay [4] relates to Staphylococcus aureus MRQR. The assay is described as follows: agar-dilution MIC, S. aureus MRQR. The following applies: methicillin resistant quinolone resistant, 10^4 CFU/spot, 37° C., 24 hours. The protocol:
as §1, §2
MRQR = methicillin resistant quinolone resistant

The test system of a further assay is Bacillus subtilis. As to the kind of experiment: agar-dilution MIC, B. subtilis. The following applies: 10^4 CFU/spot.
Excerpt: as §1

Another assay concerns Enterococcus faecalis. The assay is described as follows: agar-dilution MIC, E. faecalis. Particulars: agar with 5% defibrinated horse blood, 10^4 CFU/spot, 37° C., 5% carbon dioxide, 48 hours. The protocol: as §1, §3
Assay [5] concerns Coagulase Negative Staphylococci MS. As to the kind of experiment: agar-dilution MIC, coagulase negative staphylococci MS. The following applies: 10^4 CFU/spot, 37° C., 24 hours. The protocol: as §1, §2
In assay [6] the test system is Coagulase Negative Staphylococci MR. As to the kind of experiment: agar-dilution MIC, coagulase negative staphylococci MR. Particulars: methicillin resistant, 10^4 CFU/spot, 37° C., 24 hours. As for the experimental part: as §1, §2
MR = methicillin resistant

The structures appear in SMILES notation. In brackets after ≈: the same amount, converted by molar mass.

As for `CC(=O)NC[C@H]1CN(c2ccc(N3CCN(C)C(=O)C3)c(F)c2)C(=O)O1` [Example 1, N-(5S)-[3-(3-fluoro-4-{4-methyl-3-oxopiperazin-1-yl}phenyl)-2-oxooxazolidin-5-ylmethyl]acetamide], the MIC in assay [1] is 2 µg/mL (≈ 5.49 µM); in assay [2] it was 1 µg/mL (≈ 2.74 µM); in assay [3], 1 µg/mL (≈ 2.74 µM); in assay [4], 4 µg/mL (≈ 11 µM); against Bacillus subtilis it was 1 µg/mL (≈ 2.74 µM); in the assay on Enterococcus faecalis it was 2 µg/mL (≈ 5.49 µM). In addition, the MIC in assay [5] is 0.5 µg/mL (≈ 1.37 µM); in assay [6] it was 1 µg/mL (≈ 2.74 µM).

For the origin of these results see US6069145A, “Piperazinonephenyloxazolidinone derivatives and their use as antibacterial agents” (Zeneca Limited, priority 1996, dated 2000).
